These results are taken from US20250296956A1, “POLYPEPTIDE, PREPARATION METHOD, AND USE THEREOF” (Hunan University, priority 2022, published 2025).

Series [1] in a line: Drug safety assessment in vivo, blood indexes. Particulars: 50 mg/kg intraperitoneal once, 24 hours; for platelets (PLT) / red blood cells (RBC) / white blood cells (WBC) in the blood: compared with R9 and PBS; for white blood cells (WBC) in the blood / hemoglobin (HMGB): within the normal range. Also noted: species or system C57BL/C mice. The protocol: Referring to FIGS. 7A to 7H, (A) drug safety assessment in vivo: C57BL/C mice raised for 7 weeks were intraperitoneally injected with a dose of 50 mg/kg (R9, RM3, RSM3) once, after 24 hours, the mice were sacrificed and the blood of the mice was taken to measure indexes such as white blood cells, platelets, red blood cells, and hemoglobin, to analyze toxicity of the drug to normal animals.

Series [2] has as its system PC3 prostate cancer cells with high expression of METTL3. The series is described as follows: Anti-tumor experiment in vivo, PC3 prostate tumor-bearing mouse model. Also noted: species or system BALB/c nude mice. Conditions: for body weight changes: tumor model mice. The protocol: (B) Anti-tumor experiment in vivo: a prostate tumor-bearing mouse model is selected, the specific steps to construct the animal model are as follows: PC3 prostate cancer cells with high expression of METTL3 were cultured to a logarithmic growth phase, the PC3 prostate cancer cells were digested, collected, and prepared into a cell suspension with a concentration of 1×10^7 cells/mL. 4 to 6 week-old male and female BALB/c nude mice were taken, and were injected with 100 μL of cell suspension into the back of the hind limbs, to establish a tumor model. After a diameter of the mouse tumor grows to about 0.5 cm, the mice were randomly divided into groups according to the experimental requirements: PBS, R9, RM3, RSM3, etc. Peritumoral administration is performed on the mice, once every two days, for two consecutive weeks.

In series [3] the target is METTL3 and METTL14 (Homo sapiens, UniProt Q86U44). The series is described as follows: Binding to METTL3 and METTL14 proteins in vitro.
Series [4] deals with PC3 cells. Kind of series: Growth/proliferation inhibition, CCK-8 and clone formation, PC3. The format is cell-based, human. Particulars: for effect of inhibiting cell growth after combining with the cell-penetrating peptide R9: CCK-8, 24 hours, peptide connected with R9. The procedure:
(§1) 5.1 Referring to FIG. 5A, the polypeptides R9, RM3, and RSM3 were prepared into a 50 mM mother solution with sterile pure water, and the mother solution was gradiently diluted with a basal culture medium, the diluted peptide solution was added to 96-well plates pre-laid with PC3 and DU145 cells, 100 μL per well, and three replicates for each concentration. After 24 h of treatment, the OD value at 450 nm was measured with a CCK-8 kit, and the results were calculated and analyzed.
(§2) FIG. 5B illustrates a clone formation experiment, the grown PC3 and DU145 cells were digested with 0.25% trypsin and the number of cells were counted, 300 cells were added to each well of the six-well plate, and 2 ml of complete culture medium was added to continue culturing for 24 hours. M3, R9, RM3, and RSM3 were added to each well and cultured for 7 days, the medium was discarded, the cells were washed, stained with crystal violet, and then microscopically photographed, and the number of the cells were counted.
(§3) Referring to FIG. 6, the above two polypeptides were prepared into a 50 mM mother solution with sterile pure water, and then gradiently diluted with a basal culture medium, the diluted peptide solution was added to a 96-well plate pre-laid with PC3 and DU145 cells, 100 μL per well, and three replicates for each concentration. After 24 hours of treatment, the OD value was measured at 450 nm using CCK-8, and the obtained values were calculated.

For series [5], the system named is DU145 cells. The series is described as follows: Growth/proliferation inhibition, CCK-8 and clone formation, DU145. Particulars: for effect of inhibiting cell growth after combining with the cell-penetrating peptide R9: CCK-8, 24 hours, peptide connected with R9. It counts as cell-based, human. The procedure:
as §1, §2, §3

For series [6], the system named is DU145 (human prostate cancer cells). Conditions: for effect of mutation of R9-MPF13 on the anti-proliferative effect: relative to R9-MPF13; for inhibitory effect on the proliferation of prostate cancer cells DU145: DU145, 48 hours, MTT.
Description: 5.2 Some of the polypeptides in Table 1 were prepared into a 10 mM mother solution with sterile pure water, and the mother solution is gradiently diluted with a basal culture medium, the diluted polypeptide solution was added to 96-well plates with DU145 cells pre-laid, 100 μL per well, and four replicates for each concentration. After 48 hours of treatment, the modified MTT kit was used to treat and measure the OD value at 580 nm, and the results were calculated and analyzed.
(§4) The experiment method includes: the polypeptide was prepared into a 10 mM mother solution with sterile pure water, and after gradient dilution with a basal culture medium, the diluted polypeptide solution was added to a 96-well plate with various cells pre-laid, 100 μL per well, and four replicates for each concentration. After 48 hours of treatment, the modified MTT kit was used to treat and measure the OD value at 580 nm, and the results are calculated and analyzed.
In series [7] the test system is SaoS2 (human osteosarcoma cells). Conditions: 48 h.
Description: as §4
Series [8] deals with HepG2 (human hepatoblastoma cells). Conditions: 48 h.
Description: as §4
For series [9], the system named is HCT116 (colorectal cancer cell line). Particulars: 48 h.
Description: as §4
Series [10] relates to A375 (human malignant melanoma). Particulars: 48 h.
Description: as §4
In series [11] the test system is Hela (human anterior cervical cancer cells). Particulars: 48 h.
Description: as §4
Series [12] deals with A549 (lung cancer human alveolar basal epithelial cells). Conditions: 48 h.
Description: as §4
For series [13], the system named is K562 (human chronic myeloid leukemia cells). Particulars: 48 h.
Description: as §4
The subject of series [14] is OVCAR-3 (ovarian adenocarcinoma cells). Conditions: 48 h.
Description: as §4
Series [15] deals with RNA methylation. The series is described as follows: Determination of RNA methylation (m6A) in prostate cancer cells, dot blot. It counts as cell-based, human. Particulars: PC3 and DU145 cells, 12 hours. The procedure:
In FIG. 3, MB is methylene blue staining, and m^6A is methylation content. 500 ng and 3000 ng are the loaded sample amounts of RNA in the experiment.

In series [16] the target is T1, METTL3 (Homo sapiens, UniProt Q86U44).
T1 construct: endogenous in cells; host or cells: PC3 and DU145 cells
The series is described as follows: Inhibition of METTL3 expression in prostate cancer cells, immunoblot. The format is cell-based. Conditions: PC3 and DU145 cells, 20 μM, 24 hours. The protocol:
Referring to FIG. 4, a certain amount of polypeptide was weighed and dissolved into a 50 mM mother solution, the polypeptides R9, RM3, and RSM3 were prepared into a 50 mM mother solution with sterile pure water, after gradient dilution, the mother solution were added to a 6-well plate with PC3 and DU145 cells pre-laid, the final concentration of the polypeptide was 20 μM, 2 mL per well, and three replicates were used for each concentration. After 24 hours of treatment, the cells were lysed to extract cell proteins, and the proteins were separated by electrophoresis and transferred to a PVDF membrane, to incubate the primary antibody and secondary antibody of METTL3, and finally exposed for imaging.
In FIG. 4, GAPDH is an internal reference in the immunoblotting experiment (WB experiment).

[17] abbreviates: peritumoral administration once every two days for two weeks.
[18] abbreviates: CCK-8 24 h, clone formation 7 days.

Bridge positions count the residues as written; N and C are the ends. Ends that are not written are not given here. Peptide text beside a SMILES is read from it. Where only a bound is given, the exact number is not on record here.

T1 sequence (Q86U44 2-580 limits assumed): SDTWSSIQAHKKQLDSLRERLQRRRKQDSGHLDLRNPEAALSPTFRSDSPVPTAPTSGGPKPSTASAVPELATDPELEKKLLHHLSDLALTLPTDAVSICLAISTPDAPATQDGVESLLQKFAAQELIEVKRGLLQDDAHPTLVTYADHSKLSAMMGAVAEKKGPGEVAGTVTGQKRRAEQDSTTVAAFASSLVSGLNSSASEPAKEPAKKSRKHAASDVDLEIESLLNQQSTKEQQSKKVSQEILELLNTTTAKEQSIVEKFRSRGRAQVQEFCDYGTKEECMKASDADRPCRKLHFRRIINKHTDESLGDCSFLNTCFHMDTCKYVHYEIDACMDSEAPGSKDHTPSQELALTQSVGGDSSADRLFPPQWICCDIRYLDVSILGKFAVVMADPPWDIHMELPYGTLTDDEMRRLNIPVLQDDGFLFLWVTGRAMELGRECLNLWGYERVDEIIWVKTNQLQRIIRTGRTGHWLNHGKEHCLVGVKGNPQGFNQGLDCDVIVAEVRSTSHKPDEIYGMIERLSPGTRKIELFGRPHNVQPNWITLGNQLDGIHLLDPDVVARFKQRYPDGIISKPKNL
Sequence of METTL3 and METTL14 (Q86U44 whole entry, species assumed): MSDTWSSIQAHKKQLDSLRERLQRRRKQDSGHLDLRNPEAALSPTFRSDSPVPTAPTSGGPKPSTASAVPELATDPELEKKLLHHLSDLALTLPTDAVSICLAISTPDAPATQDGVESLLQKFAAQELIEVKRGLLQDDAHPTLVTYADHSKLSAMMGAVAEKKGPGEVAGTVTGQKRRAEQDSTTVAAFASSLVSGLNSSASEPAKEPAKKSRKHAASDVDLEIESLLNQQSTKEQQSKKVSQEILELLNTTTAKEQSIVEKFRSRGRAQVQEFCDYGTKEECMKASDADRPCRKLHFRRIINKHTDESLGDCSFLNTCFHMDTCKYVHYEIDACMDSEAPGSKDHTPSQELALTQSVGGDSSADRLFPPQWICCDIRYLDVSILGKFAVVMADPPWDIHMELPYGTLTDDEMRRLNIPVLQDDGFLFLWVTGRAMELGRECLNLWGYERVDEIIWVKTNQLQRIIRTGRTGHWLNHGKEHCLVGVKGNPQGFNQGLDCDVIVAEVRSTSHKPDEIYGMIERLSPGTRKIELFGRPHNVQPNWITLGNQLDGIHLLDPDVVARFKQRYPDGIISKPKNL

Take `CSCC[C@H](NC(=O)[C@H](CS)NC(=O)[C@H](CCCNC(=N)N)NC(=O)[C@H](CCCNC(=N)N)NC(=O)[C@H](CCCNC(=N)N)NC(=O)[C@H](CCCNC(=N)N)NC(=O)[C@H](CCCNC(=N)N)NC(=O)[C@H](CCCNC(=N)N)NC(=O)[C@H](CCCNC(=N)N)NC(=O)[C@H](CCCNC(=N)N)NC(=O)[C@@H](N)CCCNC(=N)N)C(=O)N[C@@H](CCC(=O)O)C(=O)N[C@@H](CC(C)C)C(=O)NCC(=O)N[C@@H](CCCNC(=N)N)C(=O)N[C@@H](CCC(=O)O)C(=O)N[C@@H](CS)C(=O)N[C@@H](CC(C)C)C(=O)N[C@@H](CC(N)=O)C(=O)N[C@@H](CC(C)C)C(=O)N[C@@H](Cc1c[nH]c2ccccc12)C(N)=O` [RM3] (H-RRRRRRRRRCMELGRECLNLW-NH2): in [1], the “platelets (PLT)” value is on record as “no significant effect”, the “red blood cells (RBC)” value is “no significant effect”, the “white blood cells (WBC) in the blood” value was “slightly increased this index” and the “hemoglobin (HMGB)” value was “a certain reducing effect”. The body weight changes result in series [2] (setting [17]) is reported as “no significant effect on the body weight”.

Take ELGRECLNLW [Polypeptide M3]: the “binding to the proteins of METTL3 and METTL14” value in [3] was “can bind”.

Turning to “FGRPHNVQ [Polypeptide M2, tested after being connected with the cell-penetrating peptide R9]”, the “effect of inhibiting cell growth after combining with the cell-penetrating peptide R9” value in [4] and in series [5] was “certain effect of inhibiting cell growth” each time.

For “QLQRIIRTGRTGHWLNHG [Polypeptide M1, tested after being connected with the cell-penetrating peptide R9]”, the “effect of inhibiting cell growth after combining with the cell-penetrating peptide R9” value in series [4] and in [5] was “certain effect of inhibiting cell growth” throughout.

Regarding “RRRRRRRRRRAMEEGRECLNLW [Polypeptide R9-RE]”, the “effect of mutation of R9-MPF13 on the anti-proliferative effect” value (shortened to “effect of mutation of R9-MPF13”) in series [6] is on record as “weaken the anti-proliferative effect”.

Regarding “RRRRRRRRRRAMELGRECLNLA [Polypeptide R9-RA]”, the “effect of mutation of R9-MPF13” value in series [6] is “weaken the anti-proliferative effect”.

With “RRRRRRRRRRKMELGREFLNLW [Polypeptide R9-RKF]”, the “effect of mutation of R9-MPF13” value in [6] is “enhance the anti-proliferative effect”.

One may read the IC50 as the concentration that inhibits the measured activity by half. Read a low IC50 as higher potency. “RRRRRRRRRRKMELGRELLNLW-NH2 (C-terminus assumed) [Polypeptide R9-RKL]”: the IC50 in series [6] (48 h), in [7], in series [8], in series [9], in series [10] and in series [11] was under 11 µM throughout. Moreover, the IC50 in series [12], in [13] and in series [14] was under 11 µM each time. The “inhibitory effect on the proliferation of prostate cancer cells DU145” value (“inhibitory effect on the proliferation” below) in series [6] is listed as “better inhibitory effect”. In series [6], the “effect of mutation of R9-MPF13” value is recorded as “enhance the anti-proliferative effect”.

With “RRRRRRRRRRKMELGREMLNLW [Polypeptide R9-RKM]”, the “effect of mutation of R9-MPF13” value in [6] is reported as “enhance the anti-proliferative effect”.

In the case of “RRRRRRRRRRKMELGREYLNLW [Polypeptide R9-RKY]”, the “effect of mutation of R9-MPF13” value in series [6] is listed as “enhance the anti-proliferative effect”.

Turning to “RRRRRRRRRRKWCLGRELLCLW (stapled peptide precursor) [Polypeptide R9-PSRKWL]”, in series [6], the “inhibitory effect on the proliferation” value was “better inhibitory effect”.

Consider “RRRRRRRRRRKWELGRELLNLW [Polypeptide R9-RKWL]”, for which, in series [6], the “inhibitory effect on the proliferation” value was “better inhibitory effect” and the “effect of mutation of R9-MPF13” value is given as “enhance the anti-proliferative effect”.

For “RRRRRRRRRRRMELGRELLNLW [Polypeptide R9-RRL]”, in series [6], the “effect of mutation of R9-MPF13” value was “enhance the anti-proliferative effect”.

With “RSM3: stapled peptide from RM3, 10th and 17th cysteines connected through 4,4-bis(bromomethyl)biphenyl (RRRRRRRRRCMELGRECLNLW; linker 10-17 via 4,4‑bis(bromomethyl)biphenyl)”, the “inhibition of RNA methylation (m6A)” value in series [15] is “better in terms of stability and methylation inhibition effect”. Besides, the “inhibition of RNA methylation (m6A)” value in series [15] (listed as R SM3) is “significantly inhibit the RNA methylation”. The “inhibition of the expression of METTL3” value in series [16] is given as “inhibit the expression of METTL3”. Also, in series [4] (setting [18]), the “inhibitory effect on the growth of prostate cancer cells” value was “good inhibitory effect”. For the same molecule, the “inhibitory effect on the growth of prostate cancer cells” value in series [5] (setting [18]) is “good inhibitory effect”. Besides, in series [1], the “platelets (PLT)” value is listed as “no significant effect”, the “red blood cells (RBC)” value is recorded as “no significant effect”, the “white blood cells (WBC) in the blood” value is given as “slightly increased this index” and the “hemoglobin (HMGB)” value is “a certain reducing effect”. Further, the tumor mass result in series [2] (compared with R9 group and PBS, peritumoral administration once every two days for two weeks) is “significantly less”. Also, the “effect of inhibiting the growth of prostate tumors” value in [2] (overall comparison of the METTL3 polypeptide inhibitors) is “more effective”. Moreover, in series [2] (setting [17]), the tumor volume changes result was “significantly inhibit the increase in tumor volume” and the body weight changes result is on record as “no significant effect on the body weight”.
